# Experimental data: ChEMBL document CHEMBL3421630, “Myxochelins target human 5-lipoxygenase” (J Nat Prod, 2015)
# Activity calls are given as the source filed them. No cut-off for these calls is given here.
# Columns and labels:
# [1] = biological target: T1, Polyunsaturated fatty acid 5-lipoxygenase (Homo sapiens) (UniProt P09917); conditions: 3 uM
# T1 sequence (whole entry): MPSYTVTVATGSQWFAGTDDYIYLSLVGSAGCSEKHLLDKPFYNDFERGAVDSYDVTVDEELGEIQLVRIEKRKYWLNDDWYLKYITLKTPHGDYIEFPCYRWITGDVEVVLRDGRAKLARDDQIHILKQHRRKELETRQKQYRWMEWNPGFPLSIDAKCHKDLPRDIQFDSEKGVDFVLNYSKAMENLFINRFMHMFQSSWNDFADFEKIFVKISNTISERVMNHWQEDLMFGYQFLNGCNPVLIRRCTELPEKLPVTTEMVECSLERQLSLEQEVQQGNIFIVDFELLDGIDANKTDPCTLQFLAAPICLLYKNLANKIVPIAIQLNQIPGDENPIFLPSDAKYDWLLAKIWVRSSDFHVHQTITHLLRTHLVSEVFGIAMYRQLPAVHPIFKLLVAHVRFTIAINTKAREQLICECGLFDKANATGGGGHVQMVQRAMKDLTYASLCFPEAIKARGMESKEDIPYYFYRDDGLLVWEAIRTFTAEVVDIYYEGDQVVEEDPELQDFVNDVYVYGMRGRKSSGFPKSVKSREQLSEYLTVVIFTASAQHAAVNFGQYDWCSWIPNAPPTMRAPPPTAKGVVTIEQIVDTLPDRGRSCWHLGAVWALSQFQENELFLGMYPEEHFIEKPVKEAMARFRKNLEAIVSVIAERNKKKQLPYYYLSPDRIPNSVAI
# Description: Inhibition of human recombinant 5-LOX expressed in Escherichia coli BL21 DE3 assessed as reduction in 5-LO product formation at 3 uM pre-incubated for 10 mins by RP-HPLC method
# [2] = biological target: T1, Polyunsaturated fatty acid 5-lipoxygenase (Homo sapiens); assay: Inhibition of human recombinant 5-LOX expressed in Escherichia coli BL21 DE3 assessed as reduction in 5-LO product formation at 10 uM pre-incubated for 10 mins by RP-HPLC method
# [3] = test system: K562; assay: Inhibition of cell proliferation of human K562 cells after 72 hrs by cell-titer-blue assay; assay type: functional, cell-based; conditions: K562, 72 h
# [4] = test system: HeLa; assay: Inhibition of cell proliferation of human HeLa cells after 72 hrs by methylene blue dye based assay; assay type: functional
# [5] = biological target: T2, Prostaglandin E synthase (Homo sapiens) (UniProt O14684); assay: Inhibition of m-PGES1 in IL-1beta-induced human A549 cell microsomes assessed as reduction in […]PGE2 production up to 100 uM pre-incubated for 15 mins before PGH2 addition by UV detection based reverse-phase high-performance liquid chromatography
# T2 sequence (whole entry): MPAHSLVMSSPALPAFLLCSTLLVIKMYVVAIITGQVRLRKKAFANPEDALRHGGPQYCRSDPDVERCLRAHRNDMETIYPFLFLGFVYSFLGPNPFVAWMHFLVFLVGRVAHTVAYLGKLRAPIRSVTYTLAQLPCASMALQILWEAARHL
# [6] = Siderophore activity by chrome azurol S assay
# [7] = biological target: T3, Polyunsaturated fatty acid 5-lipoxygenase (Homo sapiens, UniProt P09917); assay: (§1) Inhibition of human recombinant 5-LOX expressed in Escherichia coli BL21 DE3 assessed as reduction in 5-LO product formation pre-incubated for 10 mins by RP-HPLC method
# T3 sequence (P09917 whole entry): T1 sequence (whole entry)
# [8] = biological target: T1, Polyunsaturated fatty acid 5-lipoxygenase (Homo sapiens); assay: as §1
Structure (SMILES),inhibition [1],inhibition [2],IC50 [3] [µM],IC50 [4] [µM],inhibition [5],Activity [6],IC50 [7] [µM],inhibition [8]
CC(c1cc2ccccc2s1)N(O)C(N)=O (stereo not drawn),Active,,,,,,,
O=C(NCCCC[C@@H](CO)NC(=O)c1cccc(O)c1O)c1cccc(O)c1O,,Active,3.9,305,inactive,Active,1.9,Dose-dependent effect
